Data taken from PubChem BioAssay AID1963852 (Molecular Pharmacology Branch, DTP, NCI, 2024).

Tested on: 282377-053-R-J1-PDC complex spheroid viability
Assay: Anticancer human tumor 282377-053-R-J1-PDC patient-derived colon adenocarcinoma cell line growth inhibition [POLQ]
Conditions: for IC50: curve of first compound; for viability, T/C: stronger effect = lower value
Experimental: Multicellular complex tumor spheroid response to Polymerase (POL) inhibitors (novobiocin, ART-558, RP6685) in combination with a variety of drugs and investigational agents in selected tumor cell lines
The POL inhibitors (novobiocin, ART-558, and RP6685) were evaluated both individually and in combination with standard of care and investigational anticancer small molecules within a complex spheroid model of solid tumors. . Complex spheroids include a stromal component modeled by human endothelial cells (HUVEC) and fibroblasts modeled by human mesenchymal stem cells (MSCs). The concentration ranges selected for each drug and investigational agent were based upon clinically achievable concentrations if the clinical Cmax of the agent was known.
Compounds. The drugs and investigational agents: novobiocin (NSC847541), ART-558 (NSC835418), RP-6685 (NSC848927), peposertib (NSC802822), ceralasertib (NSC780249), elimusertib (NSC800525), camonsertib (NSC841442), AZD-1390 (NSC803789), olaparib (NSC753686), talazoparib (NSC767125), rucaparib (NSC756644), sotorasib (NSC818433), MRTX-1133 (NSC836407), SN-38 (NSC673596), topotecan (NSC609699), epotoside (NSC141540), doxorubicin (NSC123127), gemcitabine (NSC613327), 5-fluorouracil (NSC19893), paclitaxel (NSC125973), vemurafenib (NSC761431), MSA-2 (NSC828583), SN-011 (NSC837082), adavosertib (NSC754352), prexasertib (NSC758257), carboplatin (NSC241240) and oxaliplatin (NSC266046), were obtained from the National Cancer Institute (NCI) Developmental Therapeutics Program Chemical Repository (21). The FDA-approved anticancer drug set is available from the Developmental Therapeutics Program at https://dtp.cancer.gov/organization/dscb/obtaining/. […] The stock solutions were prepared in dimethyl sulfoxide (DMSO, Sigma-Aldrich, St. Louis, MO, cat. D2650), except for the platinum compounds which were prepared in saline (Quality Biological, Gaithersburg, MD, cat. 114-055-101), at 800-fold the tested concentration and stored at -70 degrees C prior to their use. All drugs and investigational agents were tested over a range starting from a high concentration at or near the clinical Cmax and decreasing in half-log increments. If the clinical Cmax for an agent had not been determined, the highest concentration tested was 10 microM, except for SN-38, which was tested at a high concentration of 1 microM.
Cell Culture. All cells were maintained in an incubator at 37 degrees C and 5% CO2 with 95% humidity. The PDC lines were cultured according to standard operating procedures established by the NCI PDMR (https://pdmr.cancer.gov). Table 3 of the manuscript, lists the cell lines along with the number of the three cell types plated to form the mct-spheroids and media for tumor cell growth. After thawing, all PDC lines, except 997537-175-T-J1-PDC and 415267-285-R-J2-PDC, were cultured in Matrigel-coated flasks prepared with a working solution of 1X Ham's F-12 nutrient mix, without supplementation (Thermo Fisher Scientific, cat. 11765054), 100 U/mL penicillin-streptomycin (Thermo Fisher Scientific, cat. 15140122), and 2.5% Matrigel (Corning Inc., Corning, NY, cat. 354248) for the first three passages. The two PDC lines 997537-175-T-J1-PDC and 415267-285-R-J2-PDC were cultured on uncoated flasks. The 857933-349-R-J2-PDC line was cultured in 6C/Colon 1B media containing advanced DMEM/F-12 (Thermo Fisher Scientific, cat. 12634028), 10 mM HEPES (Thermo Fisher Scientific, cat. 15630080), 1X GlutaMAX supplement (Thermo Fisher Scientific, cat. 35050061), 0.1 mg/mL primocin (InvivoGen, San Diego, CA, cat. ant-pm-2), 10% defined fetal bovine serum, heat inactivated (HyClone Laboratories Inc., Logan, UT, cat. SH30070.03HI), 50% L-WRN conditioned media (ATCC, cat. CRL-3276), 1.25 mM N-Acetyl-L-cysteine (Sigma-Aldrich, cat. A9165), 10 mM nicotinamide (Sigma-Aldrich, cat. N0636), 1X B-27 supplement (Thermo Fisher Scientific, cat. 17504044), 1X N-2 supplement (Thermo Fisher Scientific, cat. […]

[1] = second compound 0.0316 µM, first compound 0.0316 µM
[2] = second compound 0.0316 µM, first compound 0.1 µM
[3] = second compound 0.0316 µM, first compound 0.316 µM
[4] = second compound 0.0316 µM, first compound 1 µM
[5] = second compound 0.0316 µM, first compound 3.16 µM
[6] = second compound 0.0316 µM, first compound 10 µM
[7] = second compound 0.1 µM, first compound 0.0316 µM
[8] = second compound 0.1 µM, first compound 0.1 µM
[9] = second compound 0.1 µM, first compound 0.316 µM
[10] = second compound 0.1 µM, first compound 1 µM
[11] = second compound 0.1 µM, first compound 3.16 µM
[12] = second compound 0.1 µM, first compound 10 µM
[13] = second compound 0.316 µM, first compound 0.0316 µM
[14] = second compound 0.316 µM, first compound 0.1 µM
[15] = second compound 0.316 µM, first compound 0.316 µM
[16] = second compound 0.316 µM, first compound 1 µM
[17] = second compound 0.316 µM, first compound 3.16 µM
[18] = second compound 0.316 µM, first compound 10 µM
[19] = second compound 1 µM, first compound 0.0316 µM
[20] = second compound 1 µM, first compound 0.1 µM
[21] = second compound 1 µM, first compound 0.316 µM
[22] = second compound 1 µM, first compound 1 µM
[23] = second compound 1 µM, first compound 3.16 µM
[24] = second compound 1 µM, first compound 10 µM
[25] = second compound 3.16 µM, first compound 0.0316 µM
[26] = second compound 3.16 µM, first compound 0.1 µM
[27] = second compound 3.16 µM, first compound 0.316 µM
[28] = second compound 3.16 µM, first compound 1 µM
[29] = second compound 3.16 µM, first compound 3.16 µM
[30] = second compound 3.16 µM, first compound 10 µM
[31] = second compound 10 µM, first compound 0.0316 µM
[32] = second compound 10 µM, first compound 0.1 µM
[33] = second compound 10 µM, first compound 0.316 µM
[34] = second compound 10 µM, first compound 1 µM
[35] = second compound 10 µM, first compound 3.16 µM
[36] = second compound 10 µM, first compound 10 µM
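Note: spheroids exposed to compounds for seven days.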
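Throughout, for viability, T/C: 100% = DMSO vehicle control viability.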

CC(C)n1c(=O)n(C)c2cnc3cc(F)c(-c4ccc(OCCCN5CCCCC5)nc4)cc3c21 + COC1C(OC(N)=O)C(O)C(Oc2ccc3c(O)c(NC(=O)c4ccc(O)c(CC=C(C)C)c4)c(=O)oc3c2C)OC1(C)C
IC50 (second compound 0.0316 µM): > 10 µM | IC50 (second compound 0.1 µM): > 10 µM | IC50 (second compound 0.316 µM): > 10 µM | IC50 (second compound 1 µM): > 10 µM | IC50 (second compound 3.16 µM): > 10 µM | IC50 (second compound 10 µM): > 10 µM | viability, T/C [1]: 116% | viability, T/C [2]: 125% | viability, T/C [3]: 113% | viability, T/C [4]: 104% | viability, T/C [5]: 112% | viability, T/C [6]: 120% | viability, T/C [7]: 107% | viability, T/C [8]: 116% | viability, T/C [9]: 110% | viability, T/C [10]: 104% | viability, T/C [11]: 118% | viability, T/C [12]: 103% | viability, T/C [13]: 108% | viability, T/C [14]: 93% | viability, T/C [15]: 105% | viability, T/C [16]: 108% | viability, T/C [17]: 107% | viability, T/C [18]: 89.6% | viability, T/C [19]: 112% | viability, T/C [20]: 88.4% | viability, T/C [21]: 99.5% | viability, T/C [22]: 106% | viability, T/C [23]: 119% | viability, T/C [24]: 78.4% | viability, T/C [25]: 113% | viability, T/C [26]: 114% | viability, T/C [27]: 108% | viability, T/C [28]: 114% | viability, T/C [29]: 106% | viability, T/C [30]: 101% | viability, T/C [31]: 98.2% | viability, T/C [32]: 104% | viability, T/C [33]: 93.8% | viability, T/C [34]: 99.2% | viability, T/C [35]: 95.8% | viability, T/C [36]: 98.8%

CNCc1ccc(-c2[nH]c3cc(F)cc4c3c2CCNC4=O)cc1 + COC1C(OC(N)=O)C(O)C(Oc2ccc3c(O)c(NC(=O)c4ccc(O)c(CC=C(C)C)c4)c(=O)oc3c2C)OC1(C)C
IC50 (second compound 0.0316 µM): > 10 µM | IC50 (second compound 0.1 µM): > 10 µM | IC50 (second compound 0.316 µM): > 10 µM | IC50 (second compound 1 µM): > 10 µM | IC50 (second compound 3.16 µM): > 10 µM | IC50 (second compound 10 µM): > 10 µM | viability, T/C [1]: 115% | viability, T/C [2]: 118% | viability, T/C [3]: 106% | viability, T/C [4]: 110% | viability, T/C [5]: 130% | viability, T/C [6]: 159% | viability, T/C [7]: 113% | viability, T/C [8]: 106% | viability, T/C [9]: 104% | viability, T/C [10]: 108% | viability, T/C [11]: 122% | viability, T/C [12]: 152% | viability, T/C [13]: 104% | viability, T/C [14]: 98.4% | viability, T/C [15]: 96.6% | viability, T/C [16]: 100% | viability, T/C [17]: 133% | viability, T/C [18]: 157% | viability, T/C [19]: 102% | viability, T/C [20]: 99% | viability, T/C [21]: 121% | viability, T/C [22]: 103% | viability, T/C [23]: 128% | viability, T/C [24]: 160% | viability, T/C [25]: 98.7% | viability, T/C [26]: 111% | viability, T/C [27]: 97.6% | viability, T/C [28]: 87.4% | viability, T/C [29]: 121% | viability, T/C [30]: 167% | viability, T/C [31]: 107% | viability, T/C [32]: 122% | viability, T/C [33]: 110% | viability, T/C [34]: 106% | viability, T/C [35]: 127% | viability, T/C [36]: 162%
